# Results: US20120010205A1, “NOVEL QUINOLINE ESTERS USEFUL FOR TREATING SKIN DISORDERS” (Wyeth LLC, priority 2010, published 2012)
# Legend:
# hLXRa = target: T1, hLXRa (Homo sapiens, UniProt Q13133); assay: hLXRa binding
# T1 sequence (Q13133 1-447): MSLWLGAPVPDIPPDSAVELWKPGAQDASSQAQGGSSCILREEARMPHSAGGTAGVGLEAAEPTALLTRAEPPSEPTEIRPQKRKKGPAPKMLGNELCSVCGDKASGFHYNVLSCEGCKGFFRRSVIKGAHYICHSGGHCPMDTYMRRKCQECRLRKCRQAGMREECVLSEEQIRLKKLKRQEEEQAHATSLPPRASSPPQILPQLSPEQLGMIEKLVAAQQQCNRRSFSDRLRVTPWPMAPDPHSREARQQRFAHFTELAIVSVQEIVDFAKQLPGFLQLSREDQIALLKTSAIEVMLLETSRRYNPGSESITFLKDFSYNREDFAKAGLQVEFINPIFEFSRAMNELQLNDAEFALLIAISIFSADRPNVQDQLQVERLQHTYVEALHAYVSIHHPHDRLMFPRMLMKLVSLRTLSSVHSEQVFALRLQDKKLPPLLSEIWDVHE
# human LXRβ = target: T2, human LXRβ (Homo sapiens, UniProt P55055); assay: Ligand-binding test procedure for human LXRβ (3H T0901317 tracer, flash plates); conditions: read-out: hLXRb binding IC50
# T2 construct: made in house; host or cells: E. coli
# T2 sequence (P55055 1-460): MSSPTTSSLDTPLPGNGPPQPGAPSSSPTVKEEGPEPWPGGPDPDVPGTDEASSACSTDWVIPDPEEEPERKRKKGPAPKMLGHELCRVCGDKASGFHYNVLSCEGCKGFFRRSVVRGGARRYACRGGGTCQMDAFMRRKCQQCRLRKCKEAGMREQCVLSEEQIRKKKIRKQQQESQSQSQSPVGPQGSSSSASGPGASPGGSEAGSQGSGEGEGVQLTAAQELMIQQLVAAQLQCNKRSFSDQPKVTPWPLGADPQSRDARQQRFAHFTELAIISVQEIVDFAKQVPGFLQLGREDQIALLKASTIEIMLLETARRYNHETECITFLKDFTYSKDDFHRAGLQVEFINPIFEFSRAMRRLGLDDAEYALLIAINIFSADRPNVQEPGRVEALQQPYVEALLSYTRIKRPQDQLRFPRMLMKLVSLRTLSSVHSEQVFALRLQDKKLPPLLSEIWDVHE
# Protocol: LIGAND-BINDING TEST PROCEDURE FOR HUMAN LXRβ.
# Buffer: 100 mM KCl, 100 mM TRIS (pH 7.4 at +4° C.), 8.6% glycerol, 0.1 mM PMSF*, 2 mM MTG*, 0.2% CHAPS (* not used in wash buffer)
# Receptor source: E. coli extracted from cells expressing biotinylated hLXRβ. Extract was made in a similar buffer as above, but with 50 mM TRIS.
# Washed streptavidin and coated flash plates with wash buffer. Diluted receptor extract to give Bmax˜4000 cpm and add to the wells. Wrapped the plates in aluminum foil and stored them at +4° C. overnight.
# Made a dilution series in DMSO of the test ligands. Made a 5 nM solution of the radioactive tracer in buffer. Mixed 250 μL diluted tracer with 5 μL of the test ligand from each concentration of the dilution series. Washed the receptor-coated flash plates. Added 200 μL per well of the ligand/radiolabel mixture to the receptor-coated flash plates. Wrapped the plates in aluminum foil and incubate at +4° C. over night.
# Aspirated wells, and washed the flashed plates. Sealed the plate. Measured the remaining radioactivity in the plate.
# ABCG1 [1] = assay: Gene regulation by LXR: ABCG1, KERTr (serum-free); assay type: cell-based
# ABCG1 [2] = assay: Gene regulation by LXR: ABCG1, human foreskin fibroblasts (serum-free); assay type: cell-based
Compound,IC50 (hLXRa),IC50 (human LXRβ),EC50 (ABCG1 [1]),EC50 (ABCG1 [2]; Fibroblast),EC50 (ABCG1 [2])
"CC(C)c1cnc2c(C(F)(F)F)cccc2c1-c1cccc(OC(=O)c2ccc(S(C)(=O)=O)cc2)c1 [Example 8, 3-[3-isopropyl-8-(trifluoromethyl)quinolin-4-yl]phenyl 4-(methylsulfonyl)benzoate]",54 nM,12.5 nM,1.9 nM,38 nM,
"CNS(=O)(=O)c1cccc(C(=O)Oc2cccc(-c3c(C(C)C)cnc4c(Cl)cccc34)c2)c1 [Example 36, 3-(8-chloro-3-isopropylquinolin-4-yl)phenyl 3-(methylsulfamoyl)benzoate]",9.2 nM,4.2 nM,0.4 nM,8 nM,
"Cc1ccc(S(=O)(=O)N(C)C)cc1C(=O)Oc1cccc(-c2c(C)cnc3c(C(F)(F)F)cccc23)c1 [Example 30, 3-[3-methyl-8-(trifluoromethyl)quinolin-4-yl]phenyl 5-(dimethylsulfamoyl)-2-methylbenzoate]",445 nM,235 nM,137 nM,162 nM,
"CC(C)c1cnc2c(C(F)(F)F)cccc2c1-c1cccc(OC(=O)c2cccc(S(C)(=O)=O)c2)c1 [Example 15, 3-[3-isopropyl-8-(trifluoromethyl)quinolin-4-yl]phenyl 3-(methylsulfonyl)benzoate]",3.5 nM,1.7 nM,5.2 nM,41 nM,
"Cc1cnc2c(C(F)(F)F)cccc2c1-c1cccc(OC(=O)c2cccc(S(=O)(=O)N(C)C)c2)c1 [Example 25, 3-[3-methyl-8-(trifluoromethyl)quinolin-4-yl]phenyl 3-(dimethylsulfamoyl)benzoate]",58 nM,14 nM,42 nM,250 nM,
"Cc1ccc(S(C)(=O)=O)cc1C(=O)Oc1cccc(-c2c(C(C)C)cnc3c(C(F)(F)F)cccc23)c1 [Example 7, 3-[3-isopropyl-8-(trifluoromethyl)quinolin-4-yl]phenyl-2-methyl-5-(methylsulfonyl)benzoate]",9.2 nM,3 nM,3.34 nM,23 nM,
"CS(=O)(=O)c1cccc(C(=O)Oc2cccc(-c3c(-c4ccccc4)cnc4c(C(F)(F)F)cccc34)c2)c1 [Example 22, 3-[3-phenyl-8-(trifluoromethyl)quinolin-4-yl]phenyl 3-(methylsulfonyl)benzoate]",3.9 nM,2.3 nM,9.15 nM,9.9 nM,
"CCc1cnc2c(C(F)(F)F)cccc2c1-c1cccc(OC(=O)c2cccc(S(C)(=O)=O)c2)c1 [Example 19, 3-[3-ethyl-8-(trifluoromethyl)quinolin-4-yl]phenyl 3-(methylsulfonyl)benzoate]",4 nM,2.2 nM,12.5 nM,36 nM,
"CC(C)c1cnc2c(Cl)cccc2c1-c1cccc(OC(=O)c2ccc(S(C)(=O)=O)cc2)c1 [Example 3, 3-(8-chloro-3-isopropylquinolin-4-yl)phenyl 4-(methylsulfonyl)benzoate]",57 nM,17 nM,1.18 nM,45 nM,
"CC(C)c1cnc2c(Cl)cccc2c1-c1cccc(OC(=O)c2ccc(S(=O)(=O)N(C)C)cc2)c1 [Example 34, 3-(8-chloro-3-isopropylquinolin-4-yl)phenyl 4-(dimethylsulfamoyl)benzoate]",188 nM,64 nM,1.38 nM,78 nM,
Cc1cnc2c(C(F)(F)F)cccc2c1-c1cccc(OC(=O)c2cccc(S(C)(=O)=O)c2)c1 [Example 11],13.3 nM,3.5 nM,73 nM,105 nM,
"Cc1cnc2c(C(F)(F)F)cccc2c1-c1cccc(OC(=O)c2cc(S(C)(=O)=O)ccc2Cl)c1 [Example 28, 3-[3-methyl-8-(trifluoromethyl)quinolin-4-yl]phenyl 2-chloro-5-(methylsulfonyl)benzoate]",105 nM,19 nM,214 nM,67 nM,
"Cc1ccc(S(C)(=O)=O)cc1C(=O)Oc1cccc(-c2c(C)cnc3c(C(F)(F)F)cccc23)c1 [Example 27, 3-[3-methyl-8-(trifluormethyl)quinolin-4-yl]phenyl 2-methyl-5-(methylsulfonyl)benzoate]",140 nM,35 nM,99 nM,,25 nM
"CCS(=O)(=O)c1cccc(C(=O)Oc2cccc(-c3c(-c4ccccc4)cnc4c(Cl)cccc34)c2)c1 [Example 32, 3-(8-chloro-3-phenylquinolin-4-yl)phenyl 3-(ethylsulfonyl)benzoate]",7.9 nM,3 nM,2.86 nM,6.8 nM,
"CC(C)c1cnc2c(Cl)cccc2c1-c1cccc(OC(=O)c2cccc(CS(C)(=O)=O)c2)c1 [Example 35, 3-(8-chloro-3-isopropylauinolin-4-yl)phenyl 3-[(methylsulfonyl)methyl]benzoate]",8.7 nM,5.6 nM,0.53 nM,,11 nM
"CC(C)c1cnc2c(Cl)cccc2c1-c1cccc(OC(=O)c2cccc(S(=O)(=O)N3CCOCC3)c2)c1 [Example 37, 3-(8-chloro-3-isopropylauinolin-4-yl)phenyl 3-(morpholin-4-ylsulfonyl)benzoate]",202 nM,69 nM,2.42 nM,,60 nM
"Cc1cnc2c(C(F)(F)F)cccc2c1-c1cccc(OC(=O)c2ccc(S(C)(=O)=O)cc2)c1 [Example 29, 3-[3-methyl-8-(trifluoromethyl)quinolin-4-yl]phenyl 4-(methylsulfonyl)benzoate]",154 nM,34 nM,167 nM,250 nM,
"CS(=O)(=O)c1cccc(C(=O)Oc2cccc(-c3c(Cc4ccccc4)cnc4c(C(F)(F)F)cccc34)c2)c1 [Example 23, 3-[3-benzyl-8-(trifluoromethyl)quinolin-4-yl]phenyl 3-(methylsulfonyl)benzoate]",5.8 nM,2.7 nM,25 nM,16 nM,
"CCS(=O)(=O)c1cccc(C(=O)Oc2cccc(-c3c(C(C)C)cnc4c(Cl)cccc34)c2)c1 [Example 1, 3-(8-chloro-3-isopromilquinolin-4-yl)phenyl 3-(ethylsulfonyl)benzoate]",16.2 nM,3.7 nM,0.76 nM,59 nM,
Cc1ccc(S(=O)(=O)N(C)C)cc1C(=O)Oc1cccc(-c2c(C(C)C)cnc3c(C(F)(F)F)cccc23)c1 [Example 10],64 nM,24 nM,0.53 nM,58 nM,
Cc1ccc(S(=O)(=O)N(C)C)cc1C(=O)Oc1cccc(-c2c(C(C)C)cnc3c(Cl)cccc23)c1 [Example 5],53 nM,25 nM,1.62 nM,50 nM,
"CC(C)c1cnc2c(Cl)cccc2c1-c1cccc(OC(=O)c2cccc(S(=O)(=O)N(C)C)c2)c1 [Example 33, 3-(8-chloro-3-isopropylauinolin-4-yl)phenyl 3-(dimethylsulfamoyl)benzoate]",15 nM,4.7 nM,8.3 nM,55 nM,
CCS(=O)(=O)c1cccc(C(=O)Oc2cccc(-c3c(C)cnc4c(C(F)(F)F)cccc34)c2)c1 [Example 26],52 nM,8.6 nM,250 nM,250 nM,
